Experimental data published in PubChem BioAssay (NCI).
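Results reflect a 48-hour exposure of cells in 96-well plates to compound at five concentrations. GI50 is the concentration that inhibits growth by half. TGI denotes the concentration required for complete inhibition of growth.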

Experiments:
Assay in all cases: NCI tumour cell line growth inhibition, 48 h
[1] = tested on: 786-0 renal
[2] = tested on: A498 renal
[3] = tested on: A549 NSCLC
[4] = tested on: ACHN renal
[5] = tested on: CAKI-1 renal
[6] = tested on: CCRF-CEM leukemia
[7] = tested on: COLO 205 colon
[8] = tested on: DU-145 prostate
[9] = tested on: EKVX NSCLC
[10] = tested on: HCC-2998 colon
[11] = tested on: HCT-116 colon
[12] = tested on: HCT-15 colon
[13] = tested on: HL-60(TB) leukemia
[14] = tested on: HOP-62 NSCLC
[15] = tested on: HOP-92 NSCLC
[16] = tested on: HS 578T breast
[17] = tested on: HT29 colon
[18] = tested on: IGROV1 ovarian
[19] = tested on: K-562 leukemia
[20] = tested on: LOX IMVI melanoma
[21] = tested on: M14 melanoma
[22] = tested on: MALME-3M melanoma
[23] = tested on: MCF7 breast
[24] = tested on: MDA-MB-231 breast
[25] = tested on: MOLT-4 leukemia
[26] = tested on: NCI-H226 lung
[27] = tested on: NCI-H23 lung
[28] = tested on: NCI-H460 lung
[29] = tested on: NCI-H522 lung
[30] = tested on: NCI/ADR-RES ovarian
[31] = tested on: OVCAR-3 ovarian
[32] = tested on: OVCAR-4 ovarian
[33] = tested on: OVCAR-5 ovarian
[34] = tested on: OVCAR-8 ovarian
[35] = tested on: PC-3 prostate
[36] = tested on: RPMI-8226 leukemia
[37] = tested on: RXF 393 renal
[38] = tested on: SF-268 CNS
[39] = tested on: SF-295 CNS
[40] = tested on: SF-539 CNS
[41] = tested on: SK-MEL-2 melanoma
[42] = tested on: SK-MEL-28 melanoma
[43] = tested on: SK-MEL-5 melanoma
[44] = tested on: SK-OV-3 ovarian
[45] = tested on: SN12C renal
[46] = tested on: SNB-19 CNS
[47] = tested on: SNB-75 CNS
[48] = tested on: SR leukemia
[49] = tested on: SW-620 colon
[50] = tested on: T-47D breast
[51] = tested on: TK-10 renal
[52] = tested on: U251 CNS
[53] = tested on: UACC-257 melanoma
[54] = tested on: UACC-62 melanoma
[55] = tested on: UO-31 renal

## COc1cc(-c2nc3ccccc3s2)ccc1OCCCCOc1cc2c(cc1OC)C(=O)N1CCC[C@H]1C=N2
[1]
  GI50: 900 nM
  TGI: 2170 nM
[2]
  GI50: 1600 nM
  TGI: 4160 nM
[3]
  GI50: 2800 nM
  TGI: 7910 nM
[4]
  GI50: 1310 nM
  TGI: 5800 nM
[5]
  GI50: 949 nM
  TGI: 11600 nM
[6]
  GI50: 102 nM
  TGI: 2100 nM
[7]
  GI50: 697 nM
  TGI: 2260 nM
[8]
  GI50: 832 nM
  TGI: 6060 nM
[9]
  GI50: 2240 nM
  TGI: 5510 nM
[10]
  GI50: 1100 nM
  TGI: 2690 nM
[11]
  GI50: 570 nM
  TGI: 2190 nM
[12]
  GI50: 1700 nM
  TGI: 4460 nM
[13]
  GI50: 930 nM
  TGI: 4980 nM
[14]
  GI50: 1560 nM
  TGI: 3370 nM
[15]
  GI50: 475 nM
  TGI: 1190 nM
[16]
  GI50: 1230 nM
  TGI: 4470 nM
[17]
  GI50: 724 nM
  TGI: 7140 nM
[18]
  GI50: 3060 nM
  TGI: 12700 nM
[19]
  GI50: 372 nM
  TGI: 5880 nM
[20]
  GI50: 726 nM
  TGI: 2220 nM
[21]
  GI50: 1380 nM
  TGI: 2920 nM
[22]
  GI50: 1550 nM
  TGI: 3460 nM
[23]
  GI50: 471 nM
  TGI: 3570 nM
[24]
  GI50: 911 nM
  TGI: 3090 nM
[25]
  GI50: 952 nM
  TGI: 7990 nM
[26]
  GI50: 2470 nM
  TGI: 5050 nM
[27]
  GI50: 1470 nM
  TGI: 4720 nM
[28]
  GI50: 1000 nM
  TGI: 3400 nM
[29]
  GI50: 736 nM
  TGI: 3160 nM
[30]
  GI50: 2130 nM
  TGI: 6120 nM
[31]
  GI50: 728 nM
  TGI: 4780 nM
[32]
  GI50: 1500 nM
  TGI: 7610 nM
[33]
  GI50: 1130 nM
  TGI: 4930 nM
[34]
  GI50: 1990 nM
  TGI: 22700 nM
[35]
  GI50: 785 nM
  TGI: 2550 nM
[36]
  GI50: 328 nM
  TGI: 1440 nM
[37]
  GI50: 240 nM
  TGI: 698 nM
[38]
  GI50: 1280 nM
  TGI: 4650 nM
[39]
  GI50: 2020 nM
  TGI: 10300 nM
[40]
  GI50: 1610 nM
  TGI: 3220 nM
[41]
  GI50: 1600 nM
  TGI: 4230 nM
[42]
  GI50: 1990 nM
  TGI: 4510 nM
[43]
  GI50: 724 nM
  TGI: 2010 nM
[44]
  GI50: 2660 nM
  TGI: 5440 nM
[45]
  GI50: 1390 nM
  TGI: 3870 nM
[46]
  GI50: 1570 nM
  TGI: 4110 nM
[47]
  GI50: 1400 nM
  TGI: 2840 nM
[48]
  GI50: 212 nM
  TGI: 785 nM
[49]
  GI50: 801 nM
  TGI: 2720 nM
[50]
  GI50: 407 nM
  TGI: 2030 nM
[51]
  GI50: 2270 nM
  TGI: 8810 nM
[52]
  GI50: 489 nM
  TGI: 1630 nM
[53]
  GI50: 2490 nM
  TGI: 5780 nM
[54]
  GI50: 1410 nM
  TGI: 2840 nM
[55]
  GI50: 1170 nM
  TGI: 4060 nM
